Test [1] concerns the target His6-avi-MBP-tagged POLE2. In words: Single-point nHU-MS with recombinant His6-avi-MBP-POLE2 bait, Jurkat extract. In kind it is binding, human. The following applies: significant apparent affinity of endogenous prey protein for POLE2 bait; single-point nHU-MS; Figure S11. The text has this: So far, our study only focused on a few hand-picked NPF motifs and studied them as short synthetic peptides. However, many other proteins may be present in the proteome that could bind to POLE2 and their putative NPF motifs are embedded in their natural structures that can greatly affect their binding properties. To investigate interactions between POLE2 and intact, full length proteins proteome-wide, we used nHU-MS experiments with recombinant His6-avi-MBP-tagged POLE2 as bait and purified His6-avi-MBP as a control. Even though we are aware that this recombinant POLE2 may bind to NPF motifs with a somewhat altered affinity, we assumed that this would affect all NPF motif-mediated interactions equally, allowing an unbiased affinity ranking of all identified partners. Single point nHU measurements were performed at 26 μM POLE2 concentration and the recovered supernatant was measured by label free proteomic MS measurements (Fig. 3A, Supplementary Figs. 8A, 9, Supplementary Data 1).
Single-point nHU experiments with protein baits were carried out nearly identically with two key modifications. First, the resin saturation step was carried out by mixing 50 μl streptavidin resin with 0.5−1 ml 50 μM biotinylated protein solution and the mixture was incubated for 1.5 h at 4 °C with constant agitation. Second, instead of using estimated bait concentrations, we measured it experimentally. An extra aliquot of resin stock was prepared alongside the nHU samples that were identically processed that were used to eluate the immobilized proteins under harsh conditions, in order to experimentally quantify the Cbait by using densitometry of Coomassie stained SDS-PAGE that included a protein calibration series. For this, 50 μl bait-saturated resin aliquots were mixed with 200 μl 4x Laemmli Sample Buffer (120 mM Tris-HCl pH 7, 8% SDS, 100 mM DTT, 32% glycerol, 0.004% bromphenol blue, 1% β-mercaptoethanol), instead of cell extract. After 15 min incubation at 95 °C, these samples were analyzed by SDS-PAGE using protein calibration standard, made from recombinant MBP. Densitometry was carried out after Coomassie staining on raw Tif images by using Fiji ImageJ 1.53c and experimental bait concentration were determined by adjusting for molecular weight differences between MBP and MBP-POLE2 constructs.
Samples were digested overnight at 37 °C.

In test [2] the test system is endogenous proteins of Jurkat extract. In words: Single-point nHU-MS with biotinylated NPF motif peptide baits, proteome-wide. It is filed as binding, human. The following applies: FigureS2 Volcano; prey WASHC3. The text has this: To identify the partners of NPF motifs, we used the native holdup (nHU) assay that was recently developed by our team (Fig. 1B). The holdup approach has been extensively used to determine equilibrium dissociation constants of transient interactions mediated by PDZ and SH3 domains, 14-3-3, and human papilloma virus E6 proteins, and even nucleic acid-protein interactions[7],[30]–[35]. In the nHU experiments, a purified bait molecule, or a control compound, is immobilized on a resin at high concentration (typically 10 μM, or higher) and these resin stocks are subsequently mixed with dilute cell extracts. […] This liquid phase contains the unbound prey molecules at near binding equilibrium that can be quantified using selective and quantitative analytical approaches, such as mass spectrometry. Therefore, proteins that interact with the bait molecule will appear to be depleted in the solvent phase and by measuring its relative concentration compared to the control nHU experiment, the degree of binding (θ) can be determined that can be converted to apparent steady-state dissociation constants, according to:1 θ=1−Ifree/Itot=Cbait/Cbait+Kapp where Itot and Ifree are the measured total and bait-depleted equilibrium mass spectrometry total ion intensities of prey proteins, Cbait is the bait molecule concentration and Kapp is the apparent dissociation constant. […]

The target in another test is T1, EHD4 (Homo sapiens, UniProt Q9H223).
T1 sequence (Q9H223 1-541): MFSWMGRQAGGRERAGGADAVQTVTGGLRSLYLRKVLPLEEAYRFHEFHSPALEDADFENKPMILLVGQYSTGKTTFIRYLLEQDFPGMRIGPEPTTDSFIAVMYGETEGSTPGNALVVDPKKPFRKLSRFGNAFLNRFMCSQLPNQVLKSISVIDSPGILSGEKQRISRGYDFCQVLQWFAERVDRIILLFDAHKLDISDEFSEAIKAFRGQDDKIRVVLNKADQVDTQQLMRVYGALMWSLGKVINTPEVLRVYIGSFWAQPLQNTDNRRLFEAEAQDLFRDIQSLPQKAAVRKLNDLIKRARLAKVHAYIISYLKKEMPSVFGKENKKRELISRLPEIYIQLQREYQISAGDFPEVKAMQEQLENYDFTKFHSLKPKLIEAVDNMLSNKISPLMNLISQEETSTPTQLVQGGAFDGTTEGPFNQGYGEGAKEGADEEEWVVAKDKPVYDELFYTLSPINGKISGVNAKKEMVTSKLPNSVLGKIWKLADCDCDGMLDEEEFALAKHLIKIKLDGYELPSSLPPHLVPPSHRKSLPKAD
In words: nHU-MS peptide bait, prey EHD4. The following applies: FigureS2 Volcano; prey EHD4.

Another test addresses T2, GYPC (Homo sapiens, UniProt P04921).
T2 sequence (P04921 1-128): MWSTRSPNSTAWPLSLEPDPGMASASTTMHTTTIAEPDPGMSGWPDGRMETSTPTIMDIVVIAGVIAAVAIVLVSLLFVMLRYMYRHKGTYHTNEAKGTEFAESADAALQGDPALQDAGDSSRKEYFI
Put plainly: nHU-MS peptide bait, prey GYPC. The note with it: FigureS2 Volcano; prey GYPC.

Another test deals with T3, UBE2N (Homo sapiens, UniProt P61088).
T3 sequence (P61088 1-152): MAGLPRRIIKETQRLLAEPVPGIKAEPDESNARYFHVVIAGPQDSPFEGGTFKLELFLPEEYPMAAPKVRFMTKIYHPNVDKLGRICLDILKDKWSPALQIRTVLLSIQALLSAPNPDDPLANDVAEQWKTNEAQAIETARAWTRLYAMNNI
Put plainly: nHU-MS peptide bait, prey UBE2N. The note with it: FigureS2 Volcano; prey UBE2N.

As to NSVD [WDHD1], in test [1], the pKapp_sign was 5.025. Further, the log2FC in test [2] is reported as -0.6642; on EHD4, -0.6115; at GYPC, -0.6216; at UBE2N it was -0.5674. Further, the “-log10P” value is on record as 4.524 on EHD4, 4.7052 at GYPC and 4.615 at UBE2N.
